Common to all, as to format: binding
The target of one experiment is NS5B Δ21 1b BK (Hepatitis C virus (isolate BK), UniProt P26663). The experiment can be described thus: SPR (Biacore), kinetic two-state model, immobilized enzyme.
Experiment [1] has as its target T1, NS5B Δ21 1b Con1 (Hepatitis C virus (isolate Con1), UniProt Q9WMX2). The description is as above.
The target of a further experiment is NS5B Δ21 3a (Hepatitis C virus (isolate NZL1), UniProt Q81258). To be noted: read-out: Lomibuvir / 3a (±SD); pH 7.4, 25 °C, 10 mM MgCl2, 130 mM NaCl, 3% DMSO; allosteric, thumb II site.
NS5B Δ21 3a, sequence (Q81258 2431-3000, stated change not applied): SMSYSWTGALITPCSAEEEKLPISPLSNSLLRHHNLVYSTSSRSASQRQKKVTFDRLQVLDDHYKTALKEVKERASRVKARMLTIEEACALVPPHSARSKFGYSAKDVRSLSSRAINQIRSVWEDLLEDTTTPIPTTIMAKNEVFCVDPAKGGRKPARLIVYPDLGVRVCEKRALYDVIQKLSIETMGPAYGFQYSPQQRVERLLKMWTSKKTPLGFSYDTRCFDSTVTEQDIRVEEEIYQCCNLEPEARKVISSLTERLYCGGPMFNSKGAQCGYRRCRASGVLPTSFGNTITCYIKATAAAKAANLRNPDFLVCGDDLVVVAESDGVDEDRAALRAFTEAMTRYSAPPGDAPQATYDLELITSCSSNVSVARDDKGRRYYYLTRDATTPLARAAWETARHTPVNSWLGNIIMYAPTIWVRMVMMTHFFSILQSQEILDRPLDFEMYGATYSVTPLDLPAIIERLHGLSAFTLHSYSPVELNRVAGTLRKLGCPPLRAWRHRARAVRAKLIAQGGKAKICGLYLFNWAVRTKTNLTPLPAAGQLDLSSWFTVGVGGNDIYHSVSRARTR
The target in experiment [2] is T1, NS5B Δ21 1b Con1. Nature of the experiment: differential scanning fluorimetry (SYPRO Orange). To be noted: 2 µM protein, 10 µM inhibitor, 50 mM Tris-HCl pH 7.5, up to 2% DMSO; allosteric, palm site; unreliable (text b33 differs from table; not confirmed by SPR). (In general: Differential scanning fluorimetry follows unfolding on heating by fluorescence.)

The structures appear in SMILES notation.

NS5B Δ21 1b BK, sequence (P26663 2420-2989, stated change not applied): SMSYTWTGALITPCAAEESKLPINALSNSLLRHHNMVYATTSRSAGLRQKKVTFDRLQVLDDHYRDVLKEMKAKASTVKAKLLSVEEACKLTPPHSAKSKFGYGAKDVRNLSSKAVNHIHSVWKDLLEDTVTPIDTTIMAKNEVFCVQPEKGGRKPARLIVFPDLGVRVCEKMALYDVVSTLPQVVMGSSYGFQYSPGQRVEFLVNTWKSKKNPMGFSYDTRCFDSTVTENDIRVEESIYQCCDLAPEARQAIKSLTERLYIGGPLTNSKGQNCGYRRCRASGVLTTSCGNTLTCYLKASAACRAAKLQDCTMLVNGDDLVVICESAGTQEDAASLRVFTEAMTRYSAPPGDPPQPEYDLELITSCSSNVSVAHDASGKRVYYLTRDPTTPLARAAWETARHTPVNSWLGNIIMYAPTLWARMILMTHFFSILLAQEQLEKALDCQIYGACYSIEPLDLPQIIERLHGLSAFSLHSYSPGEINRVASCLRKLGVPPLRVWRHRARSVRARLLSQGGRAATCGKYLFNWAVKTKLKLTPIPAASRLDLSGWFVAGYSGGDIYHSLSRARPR

Consider `CC(C)(C)C#Cc1cc(N(C(=O)[C@H]2CC[C@H](C)CC2)[C@H]2CC[C@H](O)CC2)c(C(=O)O)s1` [lomibuvir], for which the Kd at NS5B Δ21 1b BK was 20 ± 0.4 nM; at NS5B Δ21 1b Con1 [1], 19 ± 7 nM; at NS5B Δ21 3a it was more than 2000 nM.

On to `CNC(=O)c1c(-c2ccc(F)cc2)oc2cc(N(CCO)S(C)(=O)=O)c(C3CC3)cc12` [nesbuvir], for which the “1b Con1 / ΔTm” value at NS5B Δ21 1b Con1 [2] was 5 °C.

For the origin of these results see paper PMC5490826 (Viruses, 2017).
